Data set [1] deals with Actinomyces viscosus. Put plainly: In vitro antibacterial activity against Actinomyces viscosus M-100-2000. The format is functional.
Data set [2] is described as follows: Distribution coefficient between octanol and aqueous phase at pH7.2. Type of data set: physicochemical. As to conditions: pH 7.2.
A short description of data set [3]: Observed inhibitory activity against various Actinomycetes strains. As to conditions: actinomycetaceae.
Data set [4] is described as follows: Partition coefficient is determined in octanol/buffer solution. Type of data set: physicochemical. As to conditions: octanol/buffer; read-out: logP.
Data set [5] is described as follows: Dissociation constant is the negative logarithm of the equilibrium coefficient of the neutral and charged forms of the compound. Type of data set: physicochemical.
Data set [6] deals with Actinomyces israelii. Briefly: In vitro antibacterial activity against Actinomycetes israelii 28360. The format is functional.
The subject of data set [7] is Actinomyces naeslundii. Put plainly: In vitro antibacterial activity against Actinomycetes naeslundii 12104. Type of data set: functional.
Data set [8] relates to Actinomyces naeslundii. Briefly: In vitro antibacterial activity against Actinomycetes naeslundii 8115. The format is functional.
The test system of data set [9] is Actinomyces israelii. Put plainly: In vitro antibacterial activity against Actinomycetes israelii 10048. The format is functional.
Data set [10] deals with Actinomyces viscosus. Briefly: In vitro antibacterial activity against Actinomycetes viscosus T14V. Type of data set: functional.
Data set [11] deals with Actinomyces israelii. Put plainly: In vitro antibacterial activity against Actinomycetes israelii 12836. The format is functional.

The structures appear in SMILES notation. In brackets after ≈: the same amount, converted by molar mass.

On to `O=C(Nc1nc2ccccc2s1)c1cc(Br)cc(Br)c1O`, for which the MIC (as a rule, the lowest concentration that inhibits growth of the organism) in the data set with Actinomyces viscosus [1] was 1.7 µg/mL (≈ 3.97 µM).

Regarding `O=C(Nc1ccc(Br)cc1)c1cc(Br)ccc1O` [DIBROMSALAN], in data set [2], the logD (in general, lipophilicity at a set pH, counting ionised and neutral species) was determined as 4.75. In addition, the “Log 1/MIC” value in data set [3] was determined as 5.87. In addition, the logP (usually the decadic logarithm of the partition coefficient of the neutral form, usually between octanol and water) in data set [4] worked out at 5.26. The pKa (as a rule, the negative logarithm of the acid dissociation constant) in data set [5] is 6.85. The molecule also returned a minimal inhibitory concentration (MIC) in the data set on Actinomyces viscosus [1] of 0.5 µg/mL (≈ 1.35 µM).

For `Cc1cc(C(=O)Nc2ccc(Br)cc2)c(O)c([N+](=O)[O-])c1`, the logD in [2] stood at 3.46. In data set [3], the “Log 1/MIC” value is listed as 3.94. Also, the logP in data set [4] is 5.06. In addition, the pKa in [5] was 5.6. This molecule also showed an MIC against Actinomyces viscosus [1] of 45 µg/mL (≈ 128 µM).

With `CCCCCCc1ccc(O)c(C(=O)Nc2cccc(C(F)(F)F)c2)c1`, the MIC with Actinomyces israelii [6] is above 5 µg/mL; in the data set on Actinomyces naeslundii [7] it was 0.05 µg/mL (≈ 0.137 µM); with Actinomyces naeslundii [8], 0.1 µg/mL (≈ 0.274 µM); with Actinomyces viscosus [1], 0.5 µg/mL (≈ 1.37 µM); in the data set on Actinomyces israelii [9], 0.5 µg/mL (≈ 1.37 µM); against Actinomyces viscosus [10] it was 0.05 µg/mL (≈ 0.137 µM). In the data set on Actinomyces israelii [11], this molecule showed an MIC of 0.5 µg/mL (≈ 1.37 µM).

With `O=C(NCC1CCCCC1)c1cc(Br)cc(Br)c1O`, in the data set on Actinomyces viscosus [1], the lowest concentration to inhibit growth (MIC) was 12 µg/mL (≈ 30.7 µM).

In the case of `Cc1cc(C)nc(NC(=O)c2cc(Br)cc(Br)c2O)c1`, in the data set on Actinomyces viscosus [1], the MIC was found to be 25 µg/mL (≈ 62.5 µM).

Regarding `CCCCCC(=O)c1ccc(O)c(C(=O)Nc2ccc(Br)cc2)c1`, the logD in data set [2] amounted to 4.88. The “Log 1/MIC” value in [3] is given as 5.6. Moreover, in data set [4], the logP was 6.02. The same molecule gave a pKa in [5] of 6.1. For the same molecule, the minimal inhibitory concentration (MIC) with Actinomyces viscosus [1] was found to be 1 µg/mL (≈ 2.56 µM).

As for `Cc1cc(C)nc(NC(=O)c2cc(Br)cc(Br)c2O)n1`, inhibition of growth in the data set on Actinomyces viscosus [1] (MIC) required 200 µg/mL (≈ 499 µM).

Molecule `Cc1nnc(NC(=O)c2cc(Br)cc(Br)c2O)s1` returned an MIC against Actinomyces viscosus [1] of 100 µg/mL (≈ 254 µM).

With `CCCCCCCCCCCC(=O)c1ccc(O)c(C(=O)Nc2cccc(C(F)(F)F)c2)c1`, the MIC with Actinomyces israelii [6] is 0.1 µg/mL (≈ 0.216 µM); in the data set on Actinomyces naeslundii [7], 0.1 µg/mL (≈ 0.216 µM); against Actinomyces naeslundii [8] it was 0.05 µg/mL (≈ 0.108 µM); in the data set with Actinomyces viscosus [1] it was 0.5 µg/mL (≈ 1.08 µM); against Actinomyces israelii [9], 0.1 µg/mL (≈ 0.216 µM); in the data set on Actinomyces viscosus [10] it was 0.1 µg/mL (≈ 0.216 µM). In the data set with Actinomyces israelii [11], this molecule returned an MIC of 0.5 µg/mL (≈ 1.08 µM).

In the data set on Actinomyces viscosus [1], `CCCCCCCC(=O)c1ccc(O)c(C(=O)Nc2ccc([N+](=O)[O-])cc2)c1` showed an MIC of 0.1 µg/mL (≈ 0.26 µM).

With `CCCCCCc1ccc(O)c(C(=O)Nc2ccc(Br)cc2)c1`, the logD in data set [2] was 6.88. For the same molecule, the “Log 1/MIC” value in data set [3] is recorded as 7.58. Further, the logP in data set [4] came out at 7.11. Besides, the pKa in [5] was determined as 7.35. For the same molecule, the MIC turned out to be 0.1 µg/mL (≈ 0.266 µM) against Actinomyces israelii [6]; 1 µg/mL (≈ 2.66 µM) in the data set on Actinomyces naeslundii [7]; 0.1 µg/mL (≈ 0.266 µM) against Actinomyces naeslundii [8]; 0.01 µg/mL (≈ 0.0266 µM) with Actinomyces viscosus [1]; 0.1 µg/mL (≈ 0.266 µM) with Actinomyces israelii [9]; 0.1 µg/mL (≈ 0.266 µM) with Actinomyces viscosus [10]. This molecule also came in with an MIC against Actinomyces israelii [11] of 0.5 µg/mL (≈ 1.33 µM).

In turn, `CCCCCCCCCCc1ccc(O)c(C(=O)Nc2ccc(Br)cc2)c1` displayed an MIC with Actinomyces viscosus [1] of 3.25 µg/mL (≈ 7.52 µM).

Take `CCCCCCCCCCCC(=O)c1ccc(O)c(C(=O)Nc2nc3ccccc3s2)c1`: the MIC in the data set with Actinomyces viscosus [1] is above 20 µg/mL.

Take `CCCCCCCCCC(=O)c1ccc(O)c(C(=O)Nc2ccc([N+](=O)[O-])cc2)c1`: the MIC amounted to 0.05 µg/mL (≈ 0.121 µM) against Actinomyces israelii [6]; 0.5 µg/mL (≈ 1.21 µM) against Actinomyces naeslundii [7]; 0.05 µg/mL (≈ 0.121 µM) in the data set with Actinomyces naeslundii [8]; 0.05 µg/mL (≈ 0.121 µM) in the data set on Actinomyces viscosus [1]; 0.05 µg/mL (≈ 0.121 µM) in the data set on Actinomyces israelii [9]; 0.05 µg/mL (≈ 0.121 µM) with Actinomyces viscosus [10]. Moreover, in the data set with Actinomyces israelii [11], the MIC was 0.05 µg/mL (≈ 0.121 µM).

`CCCCCCCCCC(=O)c1ccc(O)c(C(=O)Nc2ccc(Br)cc2)c1` gave a pH-dependent lipophilicity (logD) in data set [2] of 6.88. Also, the “Log 1/MIC” value in data set [3] amounted to 6.87. In addition, the logP in data set [4] stood at 8.02. In addition, the pKa in data set [5] stood at 6.1. The molecule further yielded an MIC in the data set on Actinomyces viscosus [1] of 0.06 µg/mL (≈ 0.134 µM).

`CCCCCCCC(=O)c1ccc(O)c(C(=O)Nc2nc3ccccc3s2)c1` returned an MIC against Actinomyces viscosus [1] of 1 µg/mL (≈ 2.52 µM).

The molecule `CCCCCCCC(=O)c1ccc(O)c(C(=O)Nc2ccc(Br)cc2)c1` yielded a logD in data set [2] of 5.88. Also, the “Log 1/MIC” value in data set [3] is recorded as 5.92. Besides, the logP in [4] stood at 7.02. For the same molecule, the pKa in data set [5] came to 6.1. In the data set with Actinomyces viscosus [1], this molecule gave an MIC of 0.5 µg/mL (≈ 1.2 µM).

In the data set on Actinomyces viscosus [1], `COc1ccc(NC(=O)c2cc(C)ccc2O)cc1` yielded an MIC above 40 µg/mL.

Consider `CCCCCCc1ccc(O)c(C(=O)NCc2cccc([N+](=O)[O-])c2)c1`, for which, in the data set on Actinomyces viscosus [1], the MIC was 0.5 µg/mL (≈ 1.4 µM).

In the data set with Actinomyces viscosus [1], `CCCCCCc1ccc(O)c(C(=O)NCc2ccc(C)c([N+](=O)[O-])c2)c1` had an MIC above 20 µg/mL.

Consider `Cc1ccc(O)c(C(=O)Nc2ccc([N+](=O)[O-])cc2)c1`, for which the MIC against Actinomyces viscosus [1] was 5 µg/mL (≈ 18.4 µM).

The molecule `CCCCCCc1ccc(O)c(C(=O)NCc2ccc(Cl)cc2)c1` showed an MIC with Actinomyces viscosus [1] of 10 µg/mL (≈ 28.9 µM).

The molecule `O=C(NCc1ccc(Cl)cc1)c1cc(Br)cc(Br)c1O` gave an MIC in the data set on Actinomyces viscosus [1] of 4 µg/mL (≈ 9.54 µM).

The molecule `O=C(Nc1ccc([N+](=O)[O-])cc1)c1cc(Br)cc(Br)c1O` had an MIC in the data set on Actinomyces viscosus [1] of 0.5 µg/mL (≈ 1.2 µM).

With `CCCCCCc1ccc(O)c(C(=O)NCc2ccc([N+](=O)[O-])cc2)c1`, the MIC was 0.1 µg/mL (≈ 0.281 µM) with Actinomyces israelii [6]; 0.05 µg/mL (≈ 0.14 µM) against Actinomyces naeslundii [7]; 0.05 µg/mL (≈ 0.14 µM) in the data set with Actinomyces naeslundii [8]; 0.05 µg/mL (≈ 0.14 µM) in the data set on Actinomyces viscosus [1]; 0.5 µg/mL (≈ 1.4 µM) with Actinomyces israelii [9]; 0.05 µg/mL (≈ 0.14 µM) in the data set with Actinomyces viscosus [10]. The molecule also showed an MIC in the data set with Actinomyces israelii [11] of 0.1 µg/mL (≈ 0.281 µM).

For the molecule `CCCCCCc1ccc(O)c(C(=O)NCc2ccc(Cl)c(Cl)c2)c1`, the MIC with Actinomyces israelii [6] came out at 1 µg/mL (≈ 2.63 µM); with Actinomyces naeslundii [7], 0.5 µg/mL (≈ 1.31 µM); in the data set on Actinomyces naeslundii [8], 0.5 µg/mL (≈ 1.31 µM); against Actinomyces viscosus [1], 0.5 µg/mL (≈ 1.31 µM); against Actinomyces israelii [9], 0.5 µg/mL (≈ 1.31 µM); against Actinomyces viscosus [10], 0.5 µg/mL (≈ 1.31 µM). Inhibition of growth against Actinomyces israelii [11] (MIC) required 1 µg/mL (≈ 2.63 µM).

The record behind these values is ChEMBL document CHEMBL1121855, “Potential salicylamide antiplaque agents: in vitro antibacterial activity against Actinomyces viscosus” (J Med Chem, 1981).
